Data published in patent US20240255419A1, “MOLECULAR PROBES FOR MAPPING BIOLOGICAL ACTIVITY” (Trustees of Boston University, priority 2023, published 2024).

Columns and labels:
[1] = tested on: SJSA-1 cells; assay: induction of apoptosis for activating caspase-3/7; type: cell-based
From the text: Other than phosphatase, we profiled caspase-3/7 activity in live cancer cells.

[2] = tested on: alkaline phosphatase (ALP); settings: standard substrate, identical conditions
[3] = tested on: ATP synthetase; assay: cellular uptake mechanism, NBD fluorescence of NBD-Phos-CN(S); type: cell-based; settings: 5 μM inhibitor, cells with NBD-Phos-CN(S)
From the text: Considering the high sensitivity and resistance to photobleaching, we conducted real-time monitoring of dephosphorylation reaction in cells by MIP imaging as Phos-CN(S) is introduced to the cells. […] The Nanoparticles formed by the amphiphilic nitrile chameleons may escape from endosomes through endosomal membrane disruption or perforation. The variation in phosphatase activity patterns at different time points is attributed to the dynamic movements of cellular structures within live cells. As previously discussed, the nanofilaments intertwine with cellular structures, causing the nanofilaments to move along with these structures. Furthermore, we utilized NBD-Phos-CN(S) to study the cellular uptake mechanism of nitrile chameleons because NBD fluorescence cannot distinguish between substrate and product.

[4] = target: T1, caspase-3 (active) (Homo sapiens, UniProt P42574); assay: enzymatic conversion efficiency by caspase-3 (active), time-course of product formation; type: biochemical; settings: standard substrate, identical conditions
T1 sequence (P42574 29-175 limits assumed): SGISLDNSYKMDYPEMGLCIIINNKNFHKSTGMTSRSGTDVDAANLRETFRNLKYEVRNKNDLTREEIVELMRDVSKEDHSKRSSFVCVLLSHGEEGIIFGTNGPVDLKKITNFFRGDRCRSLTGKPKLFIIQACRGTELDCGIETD
T1 sequence (P42574 176-277 limits assumed): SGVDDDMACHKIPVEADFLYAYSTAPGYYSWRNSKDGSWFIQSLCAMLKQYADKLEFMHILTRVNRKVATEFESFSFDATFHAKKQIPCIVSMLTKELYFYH

In the case of COc1cccc2c1C(=O)c1c(O)c3c(c(O)c1C2=O)C[C@@](O)(C(=O)CO)C[C@@H]3O[C@H]1C[C@H](N)[C@H](O)[C@H](C)O1 [Doxorubicin], the apoptosis induction [1] is reported as “efficiently induces apoptosis”.
For O=[N+]([O-])c1ccc(OP(=O)(O)O)cc1 [P-nitrophenyl phosphate], the “initial speed (v0)” value [2] was 0.53 nmol/min.
For CC[C@H]1/C=C/C=C/C[C@@H](C)[C@H](O)[C@@](C)(O)C(=O)[C@@H](C)[C@H](O)[C@@H](C)C(=O)[C@@H](C)[C@H](O)[C@@H](C)/C=C/C(=O)O[C@@H]2[C@H](C)[C@H](CC1)O[C@]1(CC[C@H](C)[C@H](C[C@@H](C)O)O1)[C@H]2C [oligomycin], the “NBD fluorescence inside the cells” value [3] was “significantly reduced”.
For Ac-DEVD-pNA, the “initial speed (v0)” value [4] was 0.33 nmol/min.
